Measurements from the supplement of paper PMC10307832.

Columns and labels:
Assay in all cases: relative viability (nuclei count vs DMSO), 5 days (fraction); higher = more cells survive
[1] = compound: CS(=O)(=O)c1ccc(C(=O)Nc2ccc(Cl)c(-c3ccccn3)c2)c(Cl)c1 [Vismodegib] + Nc1ncn([C@H]2C[C@H](O)[C@@H](CO)O2)c(=O)n1 [Decitabine] (partner 2 µM)
Method in brief: (§1)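 Lung cancer cell lines in 1536-well plates were dosed by pin tool the day after seeding, either with one drug alone or with a fixed anchor-drug dose plus five library-drug doses (not always all listed) in √10 steps. After 5 days, cells were fixed and their nuclei stained in one step (final 0.05% Triton X-100, 1% formaldehyde, 1 ug/ml Hoechst), then counted on 4× images. Relative viability is the nuclei count in treated wells divided by that in vehicle wells. Values are medians of duplicate plates.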

[2] = compound: CS(=O)(=O)c1ccc(-c2cnc(N)c(C(=O)Nc3ccccc3)n2)cc1 [VE-821] + C[C@@H](Oc1cc(-c2cnn(C3CCNCC3)c2)cnc1N)c1c(Cl)ccc(F)c1Cl [Crizotinib] (partner 1 µM)
Method in brief: as §1

[3] = compound: N#CC[C@H](C1CCCC1)n1cc(-c2ncnc3[nH]ccc23)cn1 [Ruxolitinib] + CCNC(=O)c1noc(-c2cc(C(C)C)c(O)cc2O)c1-c1ccc(CN2CCOCC2)cc1 [Luminespib] (partner 0.01 µM)
Method in brief: as §1

[4] = compound: CS(=O)(=O)c1ccc(-c2cnc(N)c(C(=O)Nc3ccccc3)n2)cc1 [VE-821] + CC(C)C[C@H](NC(=O)[C@H](Cc1ccccc1)NC(=O)c1cnccn1)B(O)O [Bortezomib] (partner 0.002 µM)
Method in brief: as §1

Cell Line	relative viability ([1]; first compound 0.08 µM)	relative viability ([1]; first compound 0.253 µM)	relative viability ([1]; first compound 0.8 µM)	relative viability ([1]; first compound 2.53 µM)	relative viability ([1]; first compound 8 µM)	relative viability ([2]; first compound 0.08 µM)	relative viability ([2]; first compound 0.253 µM)	relative viability ([2]; first compound 0.8 µM)	relative viability ([2]; first compound 2.53 µM)	relative viability ([2]; first compound 8 µM)	relative viability ([3]; first compound 0.08 µM)	relative viability ([3]; first compound 0.253 µM)	relative viability ([3]; first compound 0.8 µM)	relative viability ([3]; first compound 2.53 µM)	relative viability ([3]; first compound 8 µM)	relative viability ([4]; first compound 0.08 µM)	relative viability ([4]; first compound 0.253 µM)	relative viability ([4]; first compound 0.8 µM)	relative viability ([4]; first compound 2.53 µM)	relative viability ([4]; first compound 8 µM)
SK-MES-1	0.401	0.341	0.435	0.374	0.443	1.07	0.93	0.924	0.95	0.896	0.782	0.84	0.762	0.652	0.549					
HCC-827	0.326	0.333	0.34	0.302	0.353	0.989	1.01	0.94	1.02	0.898		0.578	0.679	0.519	0.562	1.01	0.996	1.04	1.12	1.08
NCI-H596	0.889	0.967	0.979	0.997	1.07	0.977	1.03	0.904	1.12	0.934	1.03	0.889	1.4	1.17	1	1.21	1.02	1.08	1.09	1.09
COR-L23	0.413	0.429	0.505	0.441	0.41	0.731	0.76	0.695	0.726	0.562	0.749	0.738	0.676	0.511	0.519	1.1	0.997	1.06	1	1.06
201T	0.826	0.813	0.869	0.848	0.846	1.04	1.03	1.02	1.08	0.979	1.1	1.22	1.24	1.17	1.18	1.11	1.06	1.07	1.07	1.06
NCI-H322M	0.694	0.651	0.661	0.822	0.635	1.03		0.858	0.881	0.502	0.806	0.927	0.918	0.984	1.17	1.24		1.33	1.25	1.08
LU99A	0.944	0.844	0.887	0.835	0.781	0.628	0.564	0.532	0.476	0.325	0.224	0.265	0.353	0.23	0.23	1.11	1.23	1.16	1.08	0.514
NCI-H2405	0.739	0.801	0.693	0.712	0.741	1.01	0.81	0.776	0.924	0.788		0.654	0.838	0.481	0.476	1.1	1	0.974	1.02	0.947
LK-2	0.356	0.253	0.282	0.283	0.28	0.223	0.228	0.248	0.249	0.212	0.184	0.157	0.187	0.203	0.168					
HCC-366	0.374	0.283	0.377	0.331	0.311	0.792	0.428	0.403	0.337	0.045						1.06	1.03	1.04	0.625	0.062
NCI-H441	0.23		0.235	0.211	0.238	1.21	0.791	0.866	0.927	0.723	0.299	0.424	0.319	0.472	0.317	0.622	0.967	0.552	0.705	0.405
COR-L 105	0.589	0.593	0.676	0.708	0.627	1.03	0.678	0.582	0.546	0.385	0.707	0.93	0.789	0.538	0.511	0.746	0.841	0.677	0.738	0.467
A-427	0.515	0.569	0.546	0.499	0.582	0.907	0.821	0.785	0.811	0.384		0.969	1	0.715	0.813	0.964	0.937	0.906	0.93	0.695
HCC-44	0.945	0.942	0.93	0.937	1.04	0.846	0.779	0.847	1.03	0.923	1.02	1.07	1.2	0.689	0.527	1	0.908	0.98	1.01	0.975
NCI-H2170	0.489	0.477	0.455	0.463	0.467	1.29	1.26	1.11	0.655	0.776	0.687	0.509	0.954	0.643	0.817					
NCI-H1623											0.423	0.431	0.705	0.526	0.765					
NCI-H2228						0.479	0.459	0.414	0.37	0.35	0.131	0.146	0.118	0.144	0.148	1.23	0.931	1.2	0.824	0.635
ABC-1	1.06	1.01	0.999	1.2	1.01	1.18	1.1	0.904	0.777	0.58		0.736	0.987	0.509	0.437	0.333	0.335	0.288	0.368	0.307

Cell Line	relative viability ([1]; first compound 0.08 µM)	relative viability ([1]; first compound 0.253 µM)	relative viability ([1]; first compound 0.8 µM)	relative viability ([1]; first compound 2.53 µM)	relative viability ([1]; first compound 8 µM)	relative viability ([2]; first compound 0.08 µM)	relative viability ([2]; first compound 0.253 µM)	relative viability ([2]; first compound 0.8 µM)	relative viability ([2]; first compound 2.53 µM)	relative viability ([2]; first compound 8 µM)	relative viability ([3]; first compound 0.08 µM)	relative viability ([3]; first compound 0.253 µM)	relative viability ([3]; first compound 0.8 µM)	relative viability ([3]; first compound 2.53 µM)	relative viability ([3]; first compound 8 µM)	relative viability ([4]; first compound 0.08 µM)	relative viability ([4]; first compound 0.253 µM)	relative viability ([4]; first compound 0.8 µM)	relative viability ([4]; first compound 2.53 µM)	relative viability ([4]; first compound 8 µM)
LOU-NH91	0.796	0.806	0.84	0.819	0.81	0.74	0.772	0.757	0.754	0.752		0.361	0.35	0.316	0.382	0.529	0.906	0.527	0.555	0.377
NCI-H1563						1.02	0.781	0.751	0.694	0.695	0.535	0.515	0.549	0.505	0.505	0.908	0.888	0.784	0.774	0.763
SW 900	0.404	0.417	0.429		0.481						0.175	0.181	0.181	0.154	0.193					
NCI-H1703						1.04	0.578	0.688	0.336	0.248						0.335	0.346	0.339	0.289	0.22
NCI-H1395	0.736	0.696	0.693	0.71	0.727						0.89	0.661	0.863	0.623	0.592					
CAL-12T						0.798	0.674	0.537	0.369	0.316	0.364	0.771	0.448	0.305	0.335	1.04	0.984	1.13	0.996	0.717
NCI-H358	0.21	0.228	0.21	0.256	0.225	0.67	0.636	0.501	0.588	0.451	0.309	0.238	0.312	0.362	0.168					
NCI-H1793		0.475	0.58	0.476	0.579						0.221	0.204	0.169	0.156	0.136					
HCC-78	0.561	0.736	0.661	0.698	0.786	0.344	0.368	0.338	0.352	0.336						0.697	0.561	0.471	0.549	0.303
EBC-1						0.181	0.189	0.155	0.179	0.202						0.534	0.546	0.555	0.517	0.4
NCI-H1944	0.428	0.413	0.456		0.405	1.25	1.05	0.956	1.14	0.696	0.696	0.628	0.723	0.73	0.716					
NCI-H2342	0.752	0.637	0.709	0.804	0.89						0.748	0.79	0.863	0.788	0.728					
NCI-H1299						0.986	0.967	0.919	0.903	0.786						0.992	1	0.973	0.924	0.972
Calu-6						0.97	0.844	0.795	0.684	0.466						0.945	0.907	0.891	0.937	0.429
IA-LM						1.04	0.618	0.875	1.14	0.616						0.762	0.795	0.781	0.803	0.764
NCI-H1648	0.499	0.472	0.482	0.459	0.527															
NCI-H522	0.634	0.64	0.637	0.686	0.621						1.14	1.81	1.25	0.884	1.64					
A549	0.268	0.228		0.263	0.205	0.896	0.656	0.607	0.689	0.271										
